From patent publication US20240391978A1, “APOLIPOPROTEIN FUSION PROTEINS FOR CELL-SPECIFIC IMMUNE REGULATION” (BIO-TRIP B.V., priority 2021, published 2024)

Key:
[1] = system: tolerant monocytes from the LPS-challenged volunteers; assay: Experimental human endotoxemia model, ex vivo tolerance reversal; type: cell-based; settings: ex vivo exposure 24 hours, re-stimulation on day 3
Text: In vivo experimental human endotoxemia model and ex vivo analyses: Eight healthy (as confirmed by medical history, physical examination, and routine laboratory testing) male volunteers provided written informed consent to participate in experimental endotoxemia experiments conducted at the research unit of the intensive care department of the Radboud university medical center. All study procedures were approved by the local ethics committee (CMO Arnhem-Nijmegen, registration numbers NL71293.091.19 and 2019-5730), and were conducted in accordance with the latest version of the declaration of Helsinki.
A continuous endotoxin infusion regimen was employed, as is described in detail elsewhere (van Lier, D., Geven, C., Leijte, G. P. & Pickkers, P. Experimental human endotoxemia as a model of systemic inflammation. Biochimie 159, 99-106, doi:10.1016/j.biochi.2018.06.014 (2019)). […] A 3-lead ECG was recorded continuously throughout the experiment. […] Participants were monitored for 8 hours after the endotoxin loading dose after which they were discharged from the research unit. […]
Cytokine and lactate measurements: TNF, IL6, and IL1Ra were measured in cell culture supernatants using duoset ELISA kits (R&D systems), according to the manufacturer's instructions. […] Immediately thereafter, fluorescence was measured at 530/25 nm and 590/35 nm. […]

Macrophages [2] = assay: Macrophage surface marker flow cytometry; type: cell-based, human; settings: data not shown
Text: Primary monocyte-derived dendritic cell (moDC) generation: For experiments were moDCs were compared to macrophages (untrained control or IL4-trained), moDCs were differentiated as follows. First, negatively selected monocytes were obtained as described above. […] The cells were differentiated until day 6, with one medium refresh on day 3. On day 6, the non-adherent cells were harvested in addition to the adherent cells (as described above). The moDCs and macrophages were then subjected to analysis by flow cytometry as described below.
Macrophage surface marker flow cytometry: Macrophages were harvested as described above and transferred to a v-bottom 96 well plate for staining. The cells were centrifuged at 1500 rpm, 5 minutes, 4° C. The supernatant was removed, and the cells were washed once with 200 μl PBA (PBS pH 7.4, 1% w/v BSA (Sigma)).
Fc-receptors were blocked by incubation in PBS supplemented with 10% human pooled serum for 15 minutes at 4° C. After washing once more, surface markers and viability were stained for in a volume of 50 μl for 30 minutes at 4° C., using the antibodies and viability dye described in table 3.
Following two washes, the cells were resuspended in 150 μl PEA and measured on a Cytoflex flow cytometer (Eeckman Coulter) or ED FACSVerse system (ED Eiosciences). Compensation was performed using VersaComp compensation beads (Eeckman Coulter) for single antibody stains; a mixture of live and heat-killed cells was used for single stains of the viability dye (as per the manufacturer's recommendations). Data analysis was performed in Flowjo (v10.7.1, ED Eiosciences) Our gating strategy was as follows: first, a time gate was used if necessary. Then, single cell events were selected using subsequent FSC-A/SSC-A and FSC-A/FSC-H gates. Dead cells were removed from the analysis by selecting the viability dye-negative population. Geometric mean fluorescence intensities were calculated as a measure of surface marker expression.

Macrophages [3] = assay: Phagocytosis assay; type: cell-based, human; settings: IL4-trained cells vs untrained controls; data not shown
Experimental: Phagocytosis assay: Macrophages were harvested as described above and incubated at 37° C. for 1 hour with FITC-labeled Candida albicans (kindly provided by Dr. Martin Jaeger, Radboudumc) at an MOI of 1:5. The cells were washed 2 times with ice-cold PBA and kept on ice to halt the phagocytosis. The cells were stained for CD45 (table 3) during 30 minutes in the dark at 4° C. Following two washes, trypan blue was added to a final concentration of 0.01% to quench extracellular FITC-Candida. The cells were then acquired on a Cytoflex flow cytometer.
During data analysis, CD45+ events were first selected to remove Candida-only events. Single cells were then gated on as described above and the percentage of Candida-FITC positive macrophages in each sample was calculated.

primary human monocytes = assay: In vitro inflammation inhibition, LPS-stimulated monocytes; type: cell-based
Experimental: For pharmacological inhibition experiments, the monocytes were pre-incubated for 1 hour with one of the inhibitors described in Table 2 before addition of the training stimulus.
In vitro inflammation inhibition: Monocytes were adhered to a flat-bottom cell culture plate for 1 hour and washed with warm PBS to remove any non-adherent cells and cell debris. […] Following the initial 24-hour stimulation, the supernatants were collected and stored at −20° C. until further analysis with ELISA for IL6 and TNF.
Cytokine and lactate measurements: TNF, IL6, and IL1Ra were measured in cell culture supernatants using duoset ELISA kits (R&D systems), according to the manufacturer's instructions. For lactate measurements, a fluorometric assay was used. 30 μl sample, medium control, or known standard was added to a black 96-well plate. Then, 30 μl reaction mix (PBS pH 7.4, horse radish peroxidase (0.2 U/ml), lactate oxidase (2 U/ml), Amplex red (100 μM; Fisher scientific)) was added and the reaction was incubated for 20 minutes in the dark at RT. Immediately thereafter, fluorescence was measured at 530/25 nm and 590/35 nm. Gen5 software (v3.03, BioTek) was used in conjunction with Microsoft Excel to calculate cytokine and lactate concentrations in the original samples.

[4] = Percoll-enriched monocytes, LPS 24 hours, IL4 25 ng/mL

Substance: IL4: recombinant human interleukin 4
- production of IL6 upon re-stimulation with LPS [1]: but not IL6
- production of TNF upon re-stimulation with LPS [1]: significantly improved
- CD1c expression (Macrophages [2]; IL4-trained cells vs untrained cells and moDCs): slightly more CD1c than untrained cells, but far less than moDCs
- CD14 expression (Macrophages [2]; IL4 training, day 6): strong downregulation
- CD80 expression (Macrophages [2]; IL4 training, day 6): marginally increased
- CD200R expression (Macrophages [2]; IL4 training, day 6): significantly enhanced
- CD206 expression (Macrophages [2]; IL4 training, day 6): significantly enhanced
- phagocytosis of heat-killed Candida albicans (Macrophages [3]): slightly less effective at phagocytosing heat-killed Candida albicans than untrained controls
- secretion of IL6 (primary human monocytes; [4]): potently inhibited
- secretion of IL-1Ra (primary human monocytes; [4]): secreted significantly more IL-1Ra compared to controls
- secretion of TNF (primary human monocytes; [4]): potently inhibited
- baseline lactate production (primary human monocytes; otherwise unstimulated monocytes vs medium control, data not shown): slightly, but significantly, lower baseline lactate production
